We go through three compounds from BindingDB's records for doi:10.3109/14756360902797328 (Rheinische Friedrich-Wilhelms-Universitat Bonn, 2009).

Molecules are shown by their SMILES.

Holding throughout (test): Inhibition Assay
One assay deals with Procathepsin L (Bos taurus, UniProt P25975). The following applies: pH 6; 37 °C. The method, then:
(§1) Cathepsin enzyme activities were calculated from kinetic measurements performed by fluorimetric detection of the product 7-amino-4-methylcoumarin at 37 C in a stirred cuvette. The wavelengths for excitation and emission were 360nm and 440nm.

The target in a further assay is T1, Cathepsin K (Homo sapiens, UniProt P43235).
T1 sequence (P43235 whole entry): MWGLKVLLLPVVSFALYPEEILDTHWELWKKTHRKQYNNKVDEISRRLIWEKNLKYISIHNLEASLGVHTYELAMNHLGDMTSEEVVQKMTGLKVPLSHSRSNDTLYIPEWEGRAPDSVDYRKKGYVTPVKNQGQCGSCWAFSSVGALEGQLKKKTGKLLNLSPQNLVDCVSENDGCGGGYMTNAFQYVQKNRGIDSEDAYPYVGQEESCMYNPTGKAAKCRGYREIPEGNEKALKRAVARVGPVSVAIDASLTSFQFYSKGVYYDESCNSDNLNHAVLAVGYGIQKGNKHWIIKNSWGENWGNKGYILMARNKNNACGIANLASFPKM
The following applies: pH 5; 37 °C. How it is done:
as §1

Another assay addresses Cathepsin S (Homo sapiens, UniProt P25774). Conditions: pH 6.5; 37 °C. How it is done: as §1
The target in the next assay is T2, Papain (Carica papaya, UniProt P00784).
T2 sequence (P00784 whole entry): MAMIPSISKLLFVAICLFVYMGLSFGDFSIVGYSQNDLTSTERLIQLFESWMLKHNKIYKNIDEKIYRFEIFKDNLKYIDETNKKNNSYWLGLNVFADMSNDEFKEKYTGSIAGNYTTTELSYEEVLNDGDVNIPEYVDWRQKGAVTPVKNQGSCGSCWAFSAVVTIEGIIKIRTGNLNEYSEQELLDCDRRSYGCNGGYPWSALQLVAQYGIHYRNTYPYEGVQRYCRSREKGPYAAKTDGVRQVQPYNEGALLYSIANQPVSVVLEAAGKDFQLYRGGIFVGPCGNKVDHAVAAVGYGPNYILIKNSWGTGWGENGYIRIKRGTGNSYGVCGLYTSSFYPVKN
The following applies: pH 6.5; 25 °C. How it is done: Papain enzyme activities were determined by spectrophotometric detection of the product p-nitroaniline at 25 C in a a multicell holder (parallel measurements for each single inhibitor determination) at a wavelength of 405 nm.

Cathepsin S, sequence (P25774 whole entry): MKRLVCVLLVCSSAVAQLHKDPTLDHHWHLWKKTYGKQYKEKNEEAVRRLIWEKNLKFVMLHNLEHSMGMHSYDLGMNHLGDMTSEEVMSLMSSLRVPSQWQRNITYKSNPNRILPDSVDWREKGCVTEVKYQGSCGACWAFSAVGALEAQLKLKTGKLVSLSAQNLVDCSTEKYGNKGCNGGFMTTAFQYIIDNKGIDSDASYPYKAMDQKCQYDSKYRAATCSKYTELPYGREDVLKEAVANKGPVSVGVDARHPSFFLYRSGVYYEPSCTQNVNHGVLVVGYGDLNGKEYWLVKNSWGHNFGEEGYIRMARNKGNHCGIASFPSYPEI
Procathepsin L, sequence (P25975 whole entry): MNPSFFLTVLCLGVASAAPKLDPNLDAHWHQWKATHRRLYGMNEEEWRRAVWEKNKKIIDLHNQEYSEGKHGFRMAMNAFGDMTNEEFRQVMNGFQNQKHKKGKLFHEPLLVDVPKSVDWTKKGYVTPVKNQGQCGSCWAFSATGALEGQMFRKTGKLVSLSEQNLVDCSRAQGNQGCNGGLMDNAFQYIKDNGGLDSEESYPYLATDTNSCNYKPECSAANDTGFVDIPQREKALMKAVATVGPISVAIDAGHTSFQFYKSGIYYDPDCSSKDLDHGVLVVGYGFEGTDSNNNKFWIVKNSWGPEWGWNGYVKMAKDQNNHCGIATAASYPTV

For `C[S+](C)CCC(C#N)NC(=O)[C@H](Cc1ccccc1)NC(=O)OC(C)(C)C` (stereo partly specified) [Dipeptide nitrile, 8], the Ki (in general, the dissociation constant of the complex between target and ligand, obtained from inhibition or displacement) at Procathepsin L worked out at 0.52 µM; at Cathepsin K it was 3.8 µM; on Cathepsin S it was 0.73 µM.

As to `CC(C)(C)OC(=O)N[C@@H](Cc1ccccc1)C(=O)N[C@H](C#N)CC#N` [Dipeptide nitrile, 10], the Ki came out at 1.1 µM on Papain, 0.9 µM on Procathepsin L, 6.3 µM at Cathepsin K and 0.84 µM at Cathepsin S.

Turning to `CSCCC(C#N)NC(=O)[C@H](Cc1ccccc1)NC(=O)OC(C)(C)C` (stereo partly specified) [Dipeptide nitrile, 7], the Ki at Papain was 0.25 µM; at Procathepsin L, 0.27 µM; at Cathepsin K, 3.6 µM; at Cathepsin S it was 0.65 µM.
